A short description of data set [1]: ICR mouse pharmacokinetic research. To be noted: plasma, po, ICR mice, intragastric administration 5 mg/kg. Type of data set: in vivo. As to the method:
ICR mice were used as test animals. The drug concentrations in plasma at different time points of the compounds in Comparative Example 1 and Example 17 of the present disclosure intragastrically administered to the mice were determined by LC/MS/MS method, to study the pharmacokinetic characteristics of the compounds of the present disclosure in mice.
Preparation for intragastric administration: An appropriate amount of the compound to be tested was weighed, added with an appropriate amount of DMSO: PEG 200=5%: 95% (v/v), shaken by vortex, and prepared into a solution with a final concentration of 0.5 mg/mL.
Intragastric administration group: After fasting overnight, the mice were intragastrically administered at a dose of 5 mg/kg and a volume of 10 mL/kg, and fed 4 h after the administration.
Intragastric administration group: About 100 μL of blood was collected through the orbital vein before administration and at 0.25 h, 0.5 h, 1 h, 2 h, 4 h, 8 h, 12 h and 24 h after administration.
The whole blood sample was put in an EDTA-K2 anticoagulant tube. The plasma was separated by centrifugation at 1500 g for 10 min. The collected upper layer plasma was stored at −40 to −20° C. before analysis.
The content of the compound to be tested in mouse plasma was determined by LC-MS/MS after the compound was intragastrically administered.

Data set [2] has as its target T1, recombinant human KRAS G12C protein (Homo sapiens, UniProt P01116, G12C).
T1 construct: The recombinant human KRAS G12C protein (aa1-169)
As to the kind of experiment: Covalent binding ability to KRAS G12C protein (LC-MS). To be noted: 3 μM, 5 min. As for the experimental part:
The following method was used to determine the covalent binding ability of the compounds of the present disclosure to recombinant human KRAS G12C protein under in vitro conditions.
The experimental procedure is briefly described as follows: The recombinant human KRAS G12C protein (aa1-169) was prepared with a reaction buffer (20 mM HEPES, 150 mM NaCl, 1 mM MgCl2, 1 mM DTT) at a concentration of 4 μM for later use. The test compound was prepared with DMSO into a 10 mM stock solution, which was then diluted with the reaction buffer for later use. First, 1.5 μL of the test compound diluted with the reaction buffer was added to each well (a final concentration of the reaction system was […]), then added with 23.5 μL of the reaction buffer, mixed well, then added with 25 μL of 4 μM recombinant human KRAS G12C protein for 5 min of incubation at room temperature, and added with 5 μL of acetic acid to stop the reaction. The samples were transferred to injection vials. The ratios of covalent binding between the test compounds and KRAS G12C protein were detected by Agilent 1290/6530 instrument, and the samples were analyzed in a liquid chromatography column (XBridge Protein BEH C4, 300 Å, 3.5 μm, 2.1 mm×50 mm). In the detection process, mobile phase A was 0.1% formic acid aqueous solution, mobile phase B was acetonitrile, the mobile phase elution program was as follows: mobile phase A was kept at 95% at 0-0.5 min, changed to 30% at 2.5 min for 0.5 min, and changed to 95% at 3.1 min for 1.9 min; and flow rate was 0.5 mL/min. Finally, the data was analyzed by MassHunter Workstation Software Bioconfirm Version B.08.00 to obtain the covalent binding rate between the test compound at a concentration of 3 μM and KRAS G12C protein under 5 min of incubation.

For data set [3], the system named is NCI-H358 cells. As to the kind of experiment: Inhibition of NCI-H358 cell proliferation (CellTiter-Glo). Type of data set: cell-based, human. As to conditions: 120 h of culture, read-out: IC50 inhibiting NCI-H358 cell proliferation. As for the experimental part: The following method was used to determine the effect of the compounds of the present disclosure on the proliferation of NCI-H358 cells. NCI-H358 cells (containing KRAS G12C mutation) were purchased from the Cell Resource Center, Shanghai Institutes for Biology Sciences, Chinese Academy of Sciences, and cultured in RPMI 1640 medium containing 10% fetal bovine serum, 100 U penicillin, 100 μg/mL streptomycin and 1 mM sodium pyruvate. Cell viability was determined by CellTiter-Glo® Luminescent Cell Viability Assay Kit (Promega, Cat. No. G7573).
The experiment was conducted according to the steps in the kit instruction, which is briefly described as follows: The test compound was first prepared with DMSO into a 10 mM stock solution, which was then diluted with medium into a test sample with a final concentration of the compound ranging from 1000 nM to 0.015 nM Cells in the logarithmic growth phase were inoculated into a 96-well cell culture plate at a density of 800 cells per well, cultured overnight at 37° C. in a 5% CO2 incubator, and then added with the test compound for 120 h of culture. After the culture was completed, 50 μL of CellTiter-Glo detection solution was added to each well, shaken for 5 min and left to stand for 10 min. Subsequently, the luminescence value of the sample in each well was read by a microplate in a luminescence mode. The percentage of inhibition rate of the compounds at each concentration was calculated by comparing with the value of the control group (0.3% DMSO). Then a nonlinear regression analysis on the log concentration-inhibition rate of the compounds was performed by the software GraphPad Prism 5 to obtain the IC50 value of the compound inhibiting NCI-H358 cell proliferation. Table 2 IC50 data of compounds of the present disclosure inhibiting NCI-H358 cell proliferation Compound number IC50(nM)
On the technique in general: Cellular ATP, detected with luciferase, serves as a proxy for viable cell number.

Data set [4] has as its system p-ERK1/2 in NCI-H358 cells. As to the kind of experiment: Inhibition of p-ERK1/2 in NCI-H358 cells (HTRF kit). Type of data set: cell-based. To be noted: Homo sapiens, hEGF 5 nM stimulation, read-out: IC50 inhibiting p-ERK1/2 in NCI-H358 cells. The text has this:
The following method was used to determine the inhibitory activity of the compounds of the present disclosure on p-ERK1/2 in NCI-H358 cells. In this method, Advanced phospho-ERK1/2 (Thr202/tyr204) kit (Cat. No. 64AERPEH) from Cisbio company was used, and the detailed experimental operation can be referred to the kit instruction. NCI-H358 cells (containing KRAS G12C mutation) were purchased from the Cell Resource Center, Shanghai Institutes for Biology Sciences, Chinese Academy of Sciences.
The experimental procedure is briefly described as follows: NCI-H358 cells were cultured in RPMIH 1640 complete medium containing 10% fetal bovine serum, 100 U penicillin, 100 μg/mL streptomycin and 1 mM sodium pyruvate. […] The 96-well plate was placed on ice for half an hour of lysis, and then the lysate was detected according to the instruction of the Advanced phospho-ERK1/2 (Thr202/tyr204) kit. Finally, the fluorescence intensity of each well at emission wavelengths of 620 nm and 665 nM was measured on a microplate reader in TF-FRET mode at an excitation wavelength of 304 nm, and the ratio of the fluorescence intensity of each well at 665/620 was calculated. The percentage of inhibition rate of the test compounds at each concentration was calculated by comparing with the fluorescence intensity of the control group (0.1% DMSO). […]
(Time-resolved FRET reads energy transfer from a long-lived donor to a nearby acceptor.)

Structures are written as SMILES. pIC50: −log10 of the molar value. Where two headings read alike, the source gives them in different places.

T1 sequence (P01116 1-169 isoform P01116-2 G12C): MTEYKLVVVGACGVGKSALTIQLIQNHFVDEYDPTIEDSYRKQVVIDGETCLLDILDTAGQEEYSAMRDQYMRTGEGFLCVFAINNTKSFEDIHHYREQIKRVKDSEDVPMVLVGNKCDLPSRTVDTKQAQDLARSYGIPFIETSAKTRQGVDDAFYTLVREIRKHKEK

One may read the half-life as the time in which the quantity being followed falls by half. For the compound `C=CC(=O)N1C[C@@H]2C(=O)N(C)c3c(c4cc(Cl)c(-c5c(O)cccc5F)nc4n(-c4c(C)ccnc4C(C)C)c3=O)N2C[C@H]1C` (atropisomer, axis not shown) [Comparative Example 1, reference compound], the AUC(0-inf) in data set [1] (read-out: Area under curve AUC0-∞) is 4180 ng·h/mL. Moreover, the Cmax in data set [1] (read-out: Blood concentration Cmax) was 928 ng/mL. Besides, in data set [1] (read-out: Half-life T½ (converted)), the half-life is 1.95 h.

For `C=CC(=O)N1C[C@@H]2C(=O)N(C)c3c(c4cc(F)c(-c5ccc(F)c6sc(N)nc56)nc4n(-c4c(C)ccnc4C(C)C)c3=O)N2C[C@H]1C` [Compound 7, (2R,4aR)-3-acryloyl-10-(2-amino-7-fluorobenzo[d]thiazol-4-yl)-11-fluoro-8-(2-isopropyl-4-methylpyridin-3-yl)-2,6-dimethyl-2,3,4,4a,6,8-hexahydro-1H-pyrazino [1′,2′:4,5]pyrazino[2,3-c][1,8]naphthyridine-5,7-dione], the “Covalent binding rate (%)” value in data set [2] is reported as 42.5%. The pIC50 in data set [3] (Homo sapiens, NCI-H358, 120 h) is 7.17.

Consider `C=CC(=O)N1C[C@@H]2C(=O)N(C)c3c(c4cc(F)c(-c5nc(N)ccc5Cl)nc4n(-c4c(C)ccnc4C(C)C)c3=O)N2C[C@H]1C` [Compound 10, (2R,4aR)-3-acryloyl-10-(6-amino-3-chloropyridin-2-yl)-11-fluoro-8-(2-isopropyl-4-methylpyridin-3-yl)-2,6-dimethyl-2,3,4,4a,6,8-hexahydro-1H-pyrazino [1′,2′:4,5]pyrazino[2,3-c][1,8] naphthyridine-5,7-dione], for which, in data set [2], the “Covalent binding rate (%)” value worked out at 45.5%. For the same compound, the pIC50 in data set [3] (Homo sapiens, NCI-H358, 120 h) is 7.13.

In the case of `C=CC(=O)N1C[C@@H]2C(=O)N(C)c3c(c4cc(Cl)c(-c5c(O)cccc5F)nc4n(-c4c(SC)ccnc4C(C)C)c3=O)N2C[C@H]1C` [Compound 16, (2R,4aR)-3-acryloyl-11-chloro-10-(2-fluoro-6-hydroxyphenyl)-8-(2-isopropyl-4-(methylthio)pyridin-3-yl)-2,6-dimethyl-2,3,4,4a,6,8-hexahydro-1H-pyrazino [1′,2′:4,5]pyrazino[2,3-c][1,8] naphthyridine-5,7-dione], the “Covalent binding rate (%)” value in data set [2] stood at 38.5%. For the same compound, the pIC50 in data set [3] is 7.40; in data set [4], 7.03.

In the case of `C=CC(=O)N1C[C@@H]2C(=O)N(C)c3c(c4cc(Cl)c(-c5c(O)cccc5F)nc4n(-c4c(SC)ccnc4C(C)C)c3=O)N2C[C@H]1C` [Compound 18], the pIC50 in data set [3] was 7.01.

Values taken from patent US20230295163A1, “TETRACYCLIC DERIVATIVE, METHOD FOR PREPARING SAME AND USE THEREOF IN MEDICINE” (ZHEJIANG HISUN PHARMACEUTICAL CO., LTD., priority 2020, published 2023).
